Measurements from ChEMBL document CHEMBL1144455, “A small molecule-kinase interaction map for clinical kinase inhibitors” (Nat Biotechnol, 2005).

What was measured:
[1] = target: Calcium/calmodulin-dependent protein kinase type 1 (Homo sapiens, UniProt Q14012)
[2] = target: Ephrin type-A receptor 4 (Homo sapiens, UniProt P54764)
[3] = target: 5'-AMP-activated protein kinase catalytic subunit alpha-1 (Homo sapiens, UniProt Q13131)
[4] = target: Ribosomal protein S6 kinase alpha-2 (Homo sapiens, UniProt Q15349)
[5] = target: Cyclin-dependent kinase 5 (Homo sapiens, UniProt Q00535)
[6] = target: Activated CDC42 kinase 1 (Homo sapiens, UniProt Q07912)
[7] = target: T1, Phosphorylase b kinase gamma catalytic chain, liver/testis isoform (Homo sapiens, UniProt P15735)
T1 sequence (P15735 whole entry): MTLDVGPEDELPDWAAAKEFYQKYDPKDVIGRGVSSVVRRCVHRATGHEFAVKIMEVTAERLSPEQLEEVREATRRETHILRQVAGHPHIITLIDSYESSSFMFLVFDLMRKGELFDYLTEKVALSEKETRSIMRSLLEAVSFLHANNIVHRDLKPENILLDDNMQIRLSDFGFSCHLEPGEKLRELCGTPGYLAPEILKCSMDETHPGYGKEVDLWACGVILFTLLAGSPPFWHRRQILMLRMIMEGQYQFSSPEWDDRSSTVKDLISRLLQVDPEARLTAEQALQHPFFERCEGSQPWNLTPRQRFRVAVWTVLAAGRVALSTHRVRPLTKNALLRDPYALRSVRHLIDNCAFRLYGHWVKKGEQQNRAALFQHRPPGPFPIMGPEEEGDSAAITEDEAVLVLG

[8] = target: Fibroblast growth factor receptor 1 (Homo sapiens, UniProt P11362)
[9] = target: Tyrosine-protein kinase JAK2 (Homo sapiens, UniProt O60674)
[10] = target: Tyrosine-protein kinase BTK (Homo sapiens, UniProt Q06187)
[11] = target: T2, Serine/threonine-protein kinase 4 (Homo sapiens, UniProt Q13043)
T2 sequence (Q13043 whole entry): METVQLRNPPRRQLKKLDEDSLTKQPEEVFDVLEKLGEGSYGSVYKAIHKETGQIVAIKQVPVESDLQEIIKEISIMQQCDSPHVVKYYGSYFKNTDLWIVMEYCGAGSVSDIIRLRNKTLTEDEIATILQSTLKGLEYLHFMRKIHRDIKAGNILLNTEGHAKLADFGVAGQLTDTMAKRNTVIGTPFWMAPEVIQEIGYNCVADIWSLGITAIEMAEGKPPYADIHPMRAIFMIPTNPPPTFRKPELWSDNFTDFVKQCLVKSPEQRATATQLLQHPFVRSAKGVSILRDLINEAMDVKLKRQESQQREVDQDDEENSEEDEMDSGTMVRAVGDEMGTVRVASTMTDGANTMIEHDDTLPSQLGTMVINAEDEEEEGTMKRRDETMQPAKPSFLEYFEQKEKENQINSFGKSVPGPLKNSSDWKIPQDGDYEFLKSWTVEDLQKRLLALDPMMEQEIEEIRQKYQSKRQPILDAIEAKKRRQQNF

[12] = target: Tyrosine-protein kinase JAK1 (Homo sapiens, UniProt P23458)
[13] = target: Ephrin type-A receptor 7 (Homo sapiens, UniProt Q15375)
[14] = target: Ephrin type-A receptor 5 (Homo sapiens, UniProt P54756)
[15] = target: High affinity nerve growth factor receptor (Homo sapiens, UniProt P04629)
[16] = target: Tyrosine-protein kinase SYK (Homo sapiens, UniProt P43405)
[17] = target: Phosphorylase b kinase gamma catalytic chain, skeletal muscle/heart isoform (Homo sapiens, UniProt Q16816)
[18] = target: Ribosomal protein S6 kinase alpha-3 (Homo sapiens, UniProt P51812)
[19] = target: T3, Ephrin type-A receptor 6 (Homo sapiens, UniProt Q9UF33)
T3 sequence (Q9UF33 whole entry): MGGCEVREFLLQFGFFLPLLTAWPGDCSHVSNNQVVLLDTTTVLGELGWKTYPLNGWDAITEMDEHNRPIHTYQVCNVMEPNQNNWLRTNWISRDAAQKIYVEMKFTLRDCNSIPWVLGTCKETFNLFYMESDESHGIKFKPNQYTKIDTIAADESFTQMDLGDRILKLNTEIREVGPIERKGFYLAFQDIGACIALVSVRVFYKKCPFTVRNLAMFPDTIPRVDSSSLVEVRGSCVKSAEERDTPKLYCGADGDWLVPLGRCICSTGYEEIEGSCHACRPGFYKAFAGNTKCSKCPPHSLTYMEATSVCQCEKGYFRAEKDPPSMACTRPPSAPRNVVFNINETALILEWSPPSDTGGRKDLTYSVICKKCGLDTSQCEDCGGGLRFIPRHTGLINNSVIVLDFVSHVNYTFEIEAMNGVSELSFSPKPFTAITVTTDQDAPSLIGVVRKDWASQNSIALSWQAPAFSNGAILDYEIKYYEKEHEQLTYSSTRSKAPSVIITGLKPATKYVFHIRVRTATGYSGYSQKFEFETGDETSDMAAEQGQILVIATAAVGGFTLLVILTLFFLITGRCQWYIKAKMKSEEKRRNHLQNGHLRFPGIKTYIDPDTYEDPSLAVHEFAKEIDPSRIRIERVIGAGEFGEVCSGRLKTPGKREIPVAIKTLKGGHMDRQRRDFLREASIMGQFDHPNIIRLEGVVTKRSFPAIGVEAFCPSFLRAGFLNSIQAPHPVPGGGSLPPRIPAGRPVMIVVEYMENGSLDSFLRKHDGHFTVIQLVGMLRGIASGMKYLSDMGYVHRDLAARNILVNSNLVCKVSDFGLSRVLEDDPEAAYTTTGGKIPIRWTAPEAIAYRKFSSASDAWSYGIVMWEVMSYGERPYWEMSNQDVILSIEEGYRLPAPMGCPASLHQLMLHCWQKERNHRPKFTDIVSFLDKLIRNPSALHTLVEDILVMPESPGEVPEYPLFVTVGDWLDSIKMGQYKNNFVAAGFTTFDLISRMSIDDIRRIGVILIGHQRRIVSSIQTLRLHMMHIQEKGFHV

[20] = target: Tyrosine-protein kinase ABL1 (Homo sapiens, UniProt P00519, T315I)

Measured: Kd

Sequence of Ribosomal protein S6 kinase alpha-3 (P51812 whole entry): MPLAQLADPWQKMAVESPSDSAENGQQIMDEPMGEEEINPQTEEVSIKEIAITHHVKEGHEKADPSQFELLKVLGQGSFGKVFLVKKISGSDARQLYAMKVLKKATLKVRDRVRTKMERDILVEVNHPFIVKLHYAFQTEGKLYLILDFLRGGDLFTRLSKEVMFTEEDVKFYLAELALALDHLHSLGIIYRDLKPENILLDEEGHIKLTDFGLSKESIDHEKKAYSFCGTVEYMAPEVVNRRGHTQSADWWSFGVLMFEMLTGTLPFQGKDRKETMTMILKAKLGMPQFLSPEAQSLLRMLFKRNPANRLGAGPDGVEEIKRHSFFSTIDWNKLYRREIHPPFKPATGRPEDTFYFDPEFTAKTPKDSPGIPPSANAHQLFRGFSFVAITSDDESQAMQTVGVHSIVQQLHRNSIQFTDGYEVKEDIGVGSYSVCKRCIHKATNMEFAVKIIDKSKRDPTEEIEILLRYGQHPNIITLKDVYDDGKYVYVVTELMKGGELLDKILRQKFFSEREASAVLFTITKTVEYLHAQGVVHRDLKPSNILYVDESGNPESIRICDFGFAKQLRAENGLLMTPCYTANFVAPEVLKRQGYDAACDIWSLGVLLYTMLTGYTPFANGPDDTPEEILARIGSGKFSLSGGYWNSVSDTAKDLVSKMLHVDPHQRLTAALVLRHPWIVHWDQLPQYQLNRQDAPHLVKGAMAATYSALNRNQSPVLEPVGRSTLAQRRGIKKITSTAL
Sequence of Activated CDC42 kinase 1 (Q07912 whole entry, canonical isoform): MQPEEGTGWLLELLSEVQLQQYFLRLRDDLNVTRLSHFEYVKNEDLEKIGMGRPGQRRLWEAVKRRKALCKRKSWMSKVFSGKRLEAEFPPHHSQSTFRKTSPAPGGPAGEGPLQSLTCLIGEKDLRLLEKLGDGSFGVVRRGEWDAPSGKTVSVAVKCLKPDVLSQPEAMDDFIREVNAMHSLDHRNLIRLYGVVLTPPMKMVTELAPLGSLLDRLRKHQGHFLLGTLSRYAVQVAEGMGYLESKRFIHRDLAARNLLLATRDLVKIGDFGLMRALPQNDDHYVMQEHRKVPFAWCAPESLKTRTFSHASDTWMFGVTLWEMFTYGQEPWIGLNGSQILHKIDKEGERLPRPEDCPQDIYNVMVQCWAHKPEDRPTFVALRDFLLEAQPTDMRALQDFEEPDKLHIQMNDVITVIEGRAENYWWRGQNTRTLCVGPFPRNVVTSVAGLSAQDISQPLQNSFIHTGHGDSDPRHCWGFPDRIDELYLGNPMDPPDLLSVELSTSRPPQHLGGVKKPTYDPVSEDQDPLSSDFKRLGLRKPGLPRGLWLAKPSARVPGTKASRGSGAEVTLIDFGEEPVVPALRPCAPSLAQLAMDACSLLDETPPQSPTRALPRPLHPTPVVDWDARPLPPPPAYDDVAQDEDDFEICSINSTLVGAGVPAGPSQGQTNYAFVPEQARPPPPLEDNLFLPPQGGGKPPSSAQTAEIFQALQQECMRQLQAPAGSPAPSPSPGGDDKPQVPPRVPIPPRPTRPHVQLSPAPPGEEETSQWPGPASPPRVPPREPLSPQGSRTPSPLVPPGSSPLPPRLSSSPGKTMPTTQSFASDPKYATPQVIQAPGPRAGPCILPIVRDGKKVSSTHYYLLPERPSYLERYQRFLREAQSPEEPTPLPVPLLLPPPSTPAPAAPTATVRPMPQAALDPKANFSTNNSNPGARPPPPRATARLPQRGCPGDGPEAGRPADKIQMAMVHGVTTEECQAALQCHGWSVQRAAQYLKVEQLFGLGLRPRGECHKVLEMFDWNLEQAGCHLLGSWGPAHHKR
Sequence of Cyclin-dependent kinase 5 (Q00535 whole entry): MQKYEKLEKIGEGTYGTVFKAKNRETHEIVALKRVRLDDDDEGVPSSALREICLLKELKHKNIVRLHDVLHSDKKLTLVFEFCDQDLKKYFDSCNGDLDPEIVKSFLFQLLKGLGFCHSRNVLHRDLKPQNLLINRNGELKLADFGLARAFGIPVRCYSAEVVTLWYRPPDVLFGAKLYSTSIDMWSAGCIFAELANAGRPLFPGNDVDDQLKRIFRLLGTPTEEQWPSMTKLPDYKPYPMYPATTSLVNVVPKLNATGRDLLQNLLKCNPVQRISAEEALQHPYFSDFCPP
Sequence of Fibroblast growth factor receptor 1 (P11362 whole entry): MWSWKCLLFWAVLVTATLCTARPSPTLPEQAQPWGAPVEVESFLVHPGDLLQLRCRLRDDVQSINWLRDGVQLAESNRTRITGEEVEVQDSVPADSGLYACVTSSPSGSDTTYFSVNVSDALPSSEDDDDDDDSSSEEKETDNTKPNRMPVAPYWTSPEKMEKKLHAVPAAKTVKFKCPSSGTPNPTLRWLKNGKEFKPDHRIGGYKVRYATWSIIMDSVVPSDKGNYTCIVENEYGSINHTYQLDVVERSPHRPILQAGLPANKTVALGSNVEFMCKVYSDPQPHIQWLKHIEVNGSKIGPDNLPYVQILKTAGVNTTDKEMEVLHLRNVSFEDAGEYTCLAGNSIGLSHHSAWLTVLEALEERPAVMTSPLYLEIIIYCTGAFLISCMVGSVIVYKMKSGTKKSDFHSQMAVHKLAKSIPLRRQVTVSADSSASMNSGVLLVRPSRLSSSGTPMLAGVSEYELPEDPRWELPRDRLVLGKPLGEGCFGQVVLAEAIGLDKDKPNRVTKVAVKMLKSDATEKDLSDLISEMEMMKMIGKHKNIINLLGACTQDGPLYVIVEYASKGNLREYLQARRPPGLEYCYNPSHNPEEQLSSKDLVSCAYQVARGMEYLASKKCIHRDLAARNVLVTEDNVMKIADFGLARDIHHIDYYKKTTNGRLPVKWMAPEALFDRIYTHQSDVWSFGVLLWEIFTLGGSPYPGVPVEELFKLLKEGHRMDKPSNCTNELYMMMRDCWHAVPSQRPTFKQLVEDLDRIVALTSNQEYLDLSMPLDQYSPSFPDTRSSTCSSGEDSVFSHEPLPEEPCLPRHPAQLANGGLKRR
Sequence of Tyrosine-protein kinase JAK1 (P23458 whole entry): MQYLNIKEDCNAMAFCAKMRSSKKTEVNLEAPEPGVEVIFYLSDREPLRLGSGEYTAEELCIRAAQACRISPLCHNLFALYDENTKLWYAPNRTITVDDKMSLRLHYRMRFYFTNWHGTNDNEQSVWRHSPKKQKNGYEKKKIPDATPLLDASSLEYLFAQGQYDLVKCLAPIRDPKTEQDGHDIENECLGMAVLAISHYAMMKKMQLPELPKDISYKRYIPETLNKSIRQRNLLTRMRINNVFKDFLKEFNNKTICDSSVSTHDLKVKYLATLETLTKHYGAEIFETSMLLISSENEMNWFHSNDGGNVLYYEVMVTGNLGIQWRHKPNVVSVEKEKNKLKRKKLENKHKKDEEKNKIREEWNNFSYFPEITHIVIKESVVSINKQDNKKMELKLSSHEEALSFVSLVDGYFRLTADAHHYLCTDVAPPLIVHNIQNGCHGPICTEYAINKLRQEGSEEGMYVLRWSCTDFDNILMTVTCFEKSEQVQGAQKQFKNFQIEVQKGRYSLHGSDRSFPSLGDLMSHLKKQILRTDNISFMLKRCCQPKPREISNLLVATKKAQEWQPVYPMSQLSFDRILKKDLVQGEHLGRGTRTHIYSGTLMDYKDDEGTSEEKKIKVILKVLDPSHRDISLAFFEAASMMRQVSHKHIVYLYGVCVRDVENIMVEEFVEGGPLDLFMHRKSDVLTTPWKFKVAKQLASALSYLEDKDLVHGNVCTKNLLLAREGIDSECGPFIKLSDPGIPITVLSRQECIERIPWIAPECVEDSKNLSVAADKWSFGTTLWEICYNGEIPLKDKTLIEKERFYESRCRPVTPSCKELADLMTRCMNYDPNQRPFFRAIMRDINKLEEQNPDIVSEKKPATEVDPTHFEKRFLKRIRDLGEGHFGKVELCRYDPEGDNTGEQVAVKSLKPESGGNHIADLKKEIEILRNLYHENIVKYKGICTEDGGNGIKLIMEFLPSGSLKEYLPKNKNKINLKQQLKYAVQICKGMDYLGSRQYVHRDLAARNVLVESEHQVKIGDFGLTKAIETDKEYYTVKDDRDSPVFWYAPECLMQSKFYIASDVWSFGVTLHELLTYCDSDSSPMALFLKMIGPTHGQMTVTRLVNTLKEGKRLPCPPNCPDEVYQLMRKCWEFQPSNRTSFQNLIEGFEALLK
Sequence of Ephrin type-A receptor 5 (P54756 whole entry): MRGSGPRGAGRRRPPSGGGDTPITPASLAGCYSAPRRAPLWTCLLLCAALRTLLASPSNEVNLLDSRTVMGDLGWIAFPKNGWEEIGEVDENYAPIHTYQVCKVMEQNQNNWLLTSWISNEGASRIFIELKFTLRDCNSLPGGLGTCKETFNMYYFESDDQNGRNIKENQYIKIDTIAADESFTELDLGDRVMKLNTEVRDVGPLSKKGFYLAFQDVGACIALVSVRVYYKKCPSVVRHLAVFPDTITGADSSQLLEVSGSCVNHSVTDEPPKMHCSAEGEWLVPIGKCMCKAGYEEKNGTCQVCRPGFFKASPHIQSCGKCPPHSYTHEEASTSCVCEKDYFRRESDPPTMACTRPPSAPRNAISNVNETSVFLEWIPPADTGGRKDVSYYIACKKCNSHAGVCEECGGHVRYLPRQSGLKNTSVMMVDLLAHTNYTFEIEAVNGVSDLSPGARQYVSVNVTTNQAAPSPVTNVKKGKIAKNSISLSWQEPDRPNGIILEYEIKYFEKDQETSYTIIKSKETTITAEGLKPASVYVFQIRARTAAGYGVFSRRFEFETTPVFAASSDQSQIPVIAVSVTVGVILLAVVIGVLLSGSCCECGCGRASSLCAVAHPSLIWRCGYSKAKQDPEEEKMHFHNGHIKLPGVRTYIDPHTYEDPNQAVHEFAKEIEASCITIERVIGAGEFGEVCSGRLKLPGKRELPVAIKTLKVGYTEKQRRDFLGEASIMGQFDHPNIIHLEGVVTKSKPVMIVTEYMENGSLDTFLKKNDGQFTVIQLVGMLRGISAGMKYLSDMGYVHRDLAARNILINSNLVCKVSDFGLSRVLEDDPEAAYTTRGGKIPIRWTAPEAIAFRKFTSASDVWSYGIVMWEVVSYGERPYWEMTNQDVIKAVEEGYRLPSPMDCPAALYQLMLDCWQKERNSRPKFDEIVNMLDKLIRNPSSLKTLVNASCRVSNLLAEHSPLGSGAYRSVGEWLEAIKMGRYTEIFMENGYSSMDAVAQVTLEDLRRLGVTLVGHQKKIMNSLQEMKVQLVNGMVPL

C#Cc1cccc(Nc2ncnc3cc(OCCOC)c(OCCOC)cc23)c1 [ERLOTINIB]
not listed: [19] | [20]
Not Active: all other assays above

Cc1ccc(NC(=O)c2ccc(CN3CCN(C)CC3)cc2)cc1Nc1nccc(-c2cccnc2)n1 [IMATINIB]
not listed: [16] | [20]
Not Active: all other assays above

O=c1ncn2nc(Sc3ccc(F)cc3F)ccc2c1-c1c(Cl)cccc1Cl [NEFLAMAPIMOD]
not listed: [2] | [14]
Not Active: all other assays above

CCOc1cc2ncc(C#N)c(Nc3ccc(F)c(Cl)c3)c2cc1NC(=O)/C=C/CN(C)C [PELITINIB]
Not Active: [1] | [2] | [3] | [5] | [8] | [12] | [13] | [15] | [18]

Oc1ccc(-c2nc(-c3ccc(F)cc3)c(-c3ccncc3)[nH]2)cc1 [SB-202190]
Not Active: all assays above

C[S+]([O-])c1ccc(-c2nc(-c3ccc(F)cc3)c(-c3ccncc3)[nH]2)cc1 (centres undefined) [SB-203580]
Not Active: all assays above

CC[C@H](CO)Nc1nc(NCc2ccccc2)c2ncn(C(C)C)c2n1 [SELICICLIB]
not listed: [4] | [5]
Not Active: all other assays above

Oc1c2ccccc2c2c3c(cccc13)N=N2 [SP-600125]
not listed: [1] | [4] | [5] | [7] | [11] | [16]
Not Active: all other assays above

COc1cc2c(N3CCN(C(=O)Nc4ccc(OC(C)C)cc4)CC3)ncnc2cc1OCCCN1CCCCC1 [TANDUTINIB]
not listed: [15]
Not Active: all other assays above
